Results from PubChem BioAssay AID1996.
Values after ≈ are worked out from the molar mass of the structure shown.

Conditions: buffer; pH 7.4; 200.0 µM

Row | SMILES | solubility kinetic [µg/mL]
1 | Cn1ccnc1C1CCCCN1Cc1nc(Cc2ccccc2F)no1 (centres undefined) | 49.9 (≈ 140 µM)
2 | Cn1c(N)c(C(=O)COC(=O)c2ccccc2C(F)(F)F)c(=O)n(C)c1=O | 6.3 (≈ 16.4 µM)
3 | CCC(=O)N(Cc1cc(=O)[nH]c2ccccc12)c1ccc(OC)cc1 | 47.1 (≈ 140 µM)
4 | COCCn1cc(C(=S)N2CCCCC2)c2ccccc21 | > 45.4
5 | O=[N+]([O-])c1ccccc1S(=O)(=O)NC1CCCCCCC1 | 20.1 (≈ 64.3 µM)
6 | Cc1cc(NC(=O)c2ccco2)c(=O)n(Cc2c(F)cccc2Cl)c1 | < 0.4
7 | O=C(COC(=O)/C=C/c1ccc([N+](=O)[O-])cc1)NCc1cccs1 | 4.2 (≈ 12.1 µM)
8 | O=c1c2ccccc2nc(/C=C/c2cc(Br)ccc2O)n1CCO | 6.1 (≈ 15.8 µM)
9 | CCNC(=S)N1CCC(NC(=O)c2ccco2)CC1 | > 42.2
10 | COc1ncnc(-c2ccccc2)c1-c1ccccc1 | 14.9 (≈ 56.8 µM)
11 | COC(=O)CSc1nc2cc3c(cc2cc1C)OCO3 | 1.7 (≈ 5.84 µM)
12 | CCCCN1C(=O)C(=O)N(CC(=O)Nc2ccccc2C(C)=O)C1=O | > 51.8
13 | CCOC(=O)C1(C)Oc2cccnc2NC1=O (centres undefined) | 35.2 (≈ 149 µM)
14 | Cc1cc(O)ccc1Nc1nc(-c2cccnc2)cs1 | 1.8 (≈ 6.35 µM)
15 | COc1cc2nc(CCc3ccccc3)oc(=O)c2cc1OC | > 46.7
16 | CCOC(=O)Cc1csc(NC(=O)CSc2nccn2C)n1 | > 51.1
17 | COc1ccc2oc(C(=O)NCCC(C)C)c(C)c2c1 | 1.8 (≈ 6.54 µM)
18 | O=C(OCc1cc2ccccc2[nH]c1=O)c1ccc([N+](=O)[O-])cc1 | 1.1 (≈ 3.39 µM)
19 | Cc1ccccc1Cn1c(C)nc2ccc([N+](=O)[O-])cc2c1=O | 6.9 (≈ 22.3 µM)
20 | CC(C)(C)NC(=O)NCCc1ccccc1 | 30 (≈ 136 µM)
21 | CC(=O)CCn1cc([N+](=O)[O-])nc1C | > 29.6
22 | OCCNc1nc(-c2ccccc2)c2cc(Br)ccc2n1 | 24.2 (≈ 70.3 µM)
23 | COc1cc(NC(=O)CCc2c(C)noc2C)c(Cl)cc1C(=O)O | > 52.9
24 | CCN(CC)S(=O)(=O)c1cccc(-c2csc(C)n2)c1 | 37.8 (≈ 122 µM)
25 | Fc1ccc(OCCOCCN2CCNCC2)cc1.O=C(O)C(=O)O | 51
26 | O=Cc1ccc(OCCCOc2cccc3cccnc23)cc1 | 37.7 (≈ 123 µM)
27 | COc1ccc(Cc2nc(-c3cccnc3)no2)cc1OC | 41 (≈ 138 µM)
28 | CC(NCc1ccccc1C(F)(F)F)C(O)c1ccccc1.Cl (centres undefined) | > 51.9

The remaining lines, values ahead:

Row | solubility kinetic [µg/mL] | SMILES
29 | 3.2 (≈ 10.2 µM) | CC(C)c1ccc(NC(=O)C2C3C=CC(CC3)C2C(=O)O)cc1 (centres undefined)
30 | 48.9 (≈ 136 µM) | N#C/C(=C\c1cn(CC(=O)O)c2ccccc12)C(=O)NCc1ccccc1
31 | 11.4 (≈ 22.8 µM) | CCOc1cc(C(=O)OC(C(=O)NC(=O)NC)c2ccccc2)ccc1OCC(=O)N1CCOCC1 (centres undefined)
32 | > 47 | COc1ccc(C(=O)N2CCCC(C(=O)O)C2)c2ccccc12 (centres undefined)
33 | 4 (≈ 11.1 µM) | Cc1c(Cl)cccc1NC(=O)Cn1c(-c2ccc(F)cc2)noc1=O
34 | > 56.2 | Nn1c(SCC(=O)Nc2ccc(N3CCOCC3)cc2)nnc1C1CC1
35 | > 31.5 | OC1NC(=S)N(c2ccccc2)C1O (centres undefined)
36 | > 38.6 | Cc1ccccc1N1C(=O)C2C3CCC(O3)C2C1=O (centres undefined)
37 | 12.8 (≈ 36 µM) | CCN(CC)c1ccc(Nc2nc(Cl)ncc2Br)cc1
38 | > 44.5 | CC(C)Cc1nnc(NC(=O)CCC(=O)NC2CC2)s1
39 | > 41.5 | CN(C)c1ccc(C(=O)OCC(=O)N2CCCC2)cc1
40 | 2.1 (≈ 4.9 µM) | O=C(NCC1CCCO1)c1cccc(S(=O)(=O)Nc2cccc(C(F)(F)F)c2)c1 (centres undefined)
41 | 3.2 (≈ 10.9 µM) | Cc1ccc(CC(=O)NC2CCCc3ccccc32)cc1C (centres undefined)
42 | 2.6 (≈ 8.92 µM) | CC(C)C(=O)Nc1nc(-c2ccc([N+](=O)[O-])cc2)cs1
43 | > 35.6 | CNC(=O)c1cccc2nc3ccccc3nc12
44 | 22 (≈ 77.9 µM) | COc1ccc2oc(C(=O)Nc3ccccn3)c(C)c2c1

Row | solubility kinetic [µg/mL] | SMILES
45 | > 46.8 | CC(C)CC(NC(N)=O)C(=O)NCCc1ccc(Cl)cc1 (centres undefined)
46 | > 59.6 | O=C(COC(=O)C1CC(=O)N(Cc2ccccc2)C1)Nc1cccc([N+](=O)[O-])c1 (centres undefined)
47 | > 76.7 | Cc1ccc(S(=O)(=O)NCC(=O)OCC(=O)Nc2cccc(S(=O)(=O)N3CCOCC3)c2)cc1
48 | > 45.7 | CC1(CCC(=O)N2CCCC(Nc3ccc(F)cc3)C2)CC1 (centres undefined)
49 | > 46.6 | Cc1cccc(C)c1NC(=O)C1CCN(S(C)(=O)=O)CC1
50 | > 47.8 | COc1ccccc1C(=O)NC(=O)CSc1cccc[n+]1[O-]
51 | 43.5 (≈ 129 µM) | CCC(C)NC(=O)C1=CCN(S(=O)(=O)c2ccc(C)cc2)CC1 (centres undefined)
52 | 7.8 (≈ 19.3 µM) | COc1ccc(NC(=O)c2ccc(S(=O)(=O)N3CC(C)OC(C)C3)cc2)cc1 (centres undefined)
53 | 3 (≈ 9.14 µM) | COc1ccc(NC(=O)c2oc3ccccc3c2CSC)cn1
54 | 3.2 (≈ 11.3 µM) | CC(C)c1ccc(OCC(=O)NCc2ccccc2)cc1
55 | 15.7 (≈ 53.5 µM) | Cc1cc(C(=O)OC(C)C(=O)NC2CCCCC2)c(C)o1 (centres undefined)
56 | 51.6 (≈ 149 µM) | Cc1ccc(NC(=O)CN(CCc2ccccc2)S(C)(=O)=O)cc1
57 | 3.9 (≈ 14 µM) | CC(C)(C)NC(=O)c1cccc2c1C(=O)c1ccccc1-2
58 | > 42.2 | ONC(=Nc1ccccc1Cl)c1ccccc1Cl
59 | < 0.2 | Cc1cccc(NC(=O)Cn2cnc3c(oc4ccccc43)c2=O)c1
